Assay results: patent publication EP0773287A1, “Immortalised embryonic hyppocampal cells and their use” (BAYER AG, priority 1995, dated 1997)

Legend:
Type in all cases: cell-based, murine
[1] = test system: v-myc-expressing lines and clones; experiment: Induction of differentiation of immortalised cell lines and clones; conditions: 1mM
Procedure: For experiments in the presence of growth factors or other differentiation inducing agents, the primary cell cultures or the immortalised cell lines were cultured in the presence of one or a combination of the following: β-FGF, 1ng/ml, (Collaborative Research), EGF; 5 ng/ml or 10 ng/ml, (Collaborative Research), NGF (10 ng/ml, Collaborative Reasearch), dibutyryl cyclic adenosine monophosphate (dbcAMP, 1mM, Sigma, Heidelberg), retinoic acid (5 µM; Sigma), IL-7 (50 U/ml), TGFα (5ng/ml).
To induce differentiation in vitro several combinations of the following factors were used: retinoic acid (RA, 10 µM), NGF, β-FGF, EGF, IL-7, TGFα, dbcAMP (1mM). In addition the effect of co-culture with cortical glial cells originating from postnatal day 0 to 1 and granule neurons originating from postnatal day 6 mice was investigated.

[2] = test system: metabotropic glutamate receptor(s) (mGluR) expressed by HNMMCV14.1A cells; experiment: Phosphoinositide hydrolysis: accumulation of 3H-inositol phosphates; conditions: HNMMCV14.1A cells; agonist 1 h, LiCl 10 mM; read-out: EC50 inositolphosphate accumulation
Procedure: Phosphoinositide hydrolysis was determined by measuring the accumulation of ^3H-inositol phosphates. The cells were plated in 48-well plates (Costar) at a density of 10000 cells per well and incubated for 4-5 days at 37°C, 7% CO2. Then the cells were labeled by incubation with 4 µCi of myo-2-^3H-inositol per ml medium (specific activity: […]: Amersham). After 24 h LiCl (10 mM final concentration) was added to the cells for 1 h. Agonists were then added at the concentrations indicated. The incubation was stopped after 1 h by replacing the medium with 200 µl ice-cold methanol. 400 µl of destilled water was added and the sample was directly applied to AG-1X8 ion exchange columns (AG-1X8 resin: BioRad). Free inositol and glycerophosphoryl-inositol were washed away with 16 ml destilled water followed by 10 ml 5 mM disodium-tetraborate, 60 mM sodium formate. Total ^3H-inositol phosphates (IP1, IP2, IP3) were eluted with 7 ml of 100 mM formic acid, 1 M ammonium formate. Radioactivity of the eluted ^3H-inositol phosphates was determined by liquid scintillation counting after addition of 13 ml liquid scintillation cocktail (Ultima Gold: Canberra Packard). Measurements were performed in triplicates for each experimental point. Untreated controls were set as 100% and the other values calculated in relation to this.
The columns were prepared as follows: 1 ml pipet tips were filled with one glass bead (Roth) per tip before adding 500 µl AG-1X8 resin. The resin was compressed with air and 270 µl seasand was applied. Until use they were stored at 4°C.

[3] = test system: HC e/n XVB cells; experiment: Whole-cell patch-clamp recording of ligand-activated currents; conditions: membrane potential clamped to -70mV
Procedure: (§1) Electrophysiological setup: Membrane currents were measured with the patchclamp technique in the whole-cell recording configuration (Hamill et al. 1981, Pfluegers Arch. 391:85-100). Current signals were amplified with conventional electronics (EPC-9 amplifier, HEKA Elektronik GmbH, Lambrecht, Germany), filtered at 10kHz, and sampled at 5 kHz by an interface connected to an IBM AT-compatible computer system, which also served as a stimulus generator.
(§2) Solutions and electrodes: The standard bathing solution contained (in mM): Nacl 150, KCL 5, MgCl2 1.8, HEPES 5, and glucose 10. In some experiments an equimolar amount of NaCl was replaced by 5mM BaCl2. Recording pipettes had resistances about 5MΩ (Hilgenberg, Malsfeld, Germany). The pipettes contained (in mM): KCL 140, CaCl2 0.5, EGTA 5, MgCl2 2, and HEPES 10. The pH was adjusted to 7.4. In some experiments the pipette solution was designed to minimize the contribution of voltage-activated currents. In this case, investigating the ligand-activated currents, the pipette solution contained (in mM): CsCl 140, EGTA 10, and HEPES 10.
(§3) Ligands were dissolved in the extracellular saline solution and applied via an U-tube application system. To record ligand-induced currents, the membrane potential was clamped to -70mV. For measurements of voltage-activated currents, cells were held at -70mV and every second the membrane was stepped through a 50 msec. de- or hyperpolarising test pulse to a potential between -170 and +20 mV.

[4] = test system: HNMMCV13.1.E; experiment: as above; conditions: 13.1.E; membrane potential clamped to -70mV
Procedure: as §1, §2, §3

| Structure (SMILES) | expression of MAP-2 ([1]; cell line HNMMCV11.2.) | differentiation of the cells (morphology, markers vimentin and nestin) ([1]; v-myc-expressing lines and clones) | EC50 [2] | ligand-activated currents (electrophysiological recordings) ([3]; XV. B/ - EGF) | ligand-activated currents (electrophysiological recordings) ([3]; XV. B) | ligand-activated currents (electrophysiological recordings) [4] |
| --- | --- | --- | --- | --- | --- | --- |
| CCCC(=O)Nc1ncnc2c1ncn2[C@@H]1O[C@@H]2COP(=O)(O)O[C@H]2[C@H]1OC(=O)CCC [dbcAMP, dibutyryl cyclic adenosine monophosphate] | induction of the expression of MAP-2 | partial differentiation |  |  |  |  |
| N[C@@H](CCC(=O)O)C(=O)O [Glutamate, L-glutamate] |  |  | 50 µM | ++ (++: 30-70% positive cells) | - | + (+: 10-30% positive cells) |
